Data from patent US20240287094A1, “NITROGEN-CONTAINING HETEROCYCLIC COMPOUND, PREPARATION METHOD THEREFOR, AND APPLICATION THEREOF IN MEDICINES” (Jiangsu Hengrui Pharmaceuticals Co., Ltd., priority 2021, published 2024).

Key:
Assay in all cases: Cell proliferation assay (CellTiter-Glo, intracellular ATP content)
Assay type in all cases: cell-based
DLD1 cells = details: DLD-1, 144 h; inhibition of proliferation, human colon cancer cells, 6 days incubation
Text: (§1) The following method evaluates the inhibitory effect of the compounds of the present disclosure on the proliferation of DLD1, DLD1^BRCA2−/−, and MDA-MB-436 cells via IC50 by measuring the intracellular ATP content. The experimental method was briefly described as follows: • I. Experimental materials and instruments • 1. DLD1, human colon cancer cells (Cobioer, Nanjing, CBP60037) • 2. DLD1^BRCa2−/−, human BRCA2 gene knock-out colon cancer cells (Creative biogene, CSC-RT0015) • 3. MDA-MB-436, human breast cancer cells (ATCC, HTB-130) • 4. Fetal bovine serum (GIBCO, 10091-148) • 5. CellTite-Glo reagent (Promega, G^7573) • 6. 96-well cell culture plate (corning, 3903) • 7. Pancreatin (invitrogen, 25200-072) • 8. Microplate reader (BMG, PHERAsta) • 9. Cell counter (Countstar, Shanghai, IC1000) • II. Experimental procedures • DLD1 cells were cultured in an RPMI-1640 medium containing 10% FBS, and passaged 2-3 times a week in a passage ratio of 1:6 or 1:8. During passage, the cells were digested by pancreatin, transferred to a centrifuge tube, and centrifuged for 3 min at 1200 rpm. The supernatant was discarded, and a fresh medium was added to resuspend the cells. To a 96-well cell culture plate, 180 μL of the cell suspension was added at a density of 2.78×10^3 cells/mL. To peripheral wells of the 96-well plate, only 180 μL of complete medium was added.
(§2) The culture plate was incubated in an incubator for 24 h (37° C., 5% CO2).
(§3) The test samples were diluted to 2 mM in DMSO and serially 3-fold diluted to the 10th concentration. Blank and control wells were set. 5 μL of the serially diluted test compound solutions was added to 95 μL of fresh medium. 20 μL of the medium solution containing the compound described above was added to the plate. The plate was incubated in an incubator (37° C., 5% CO2) for 6 days. 90 μL of CellTiter-Glo reagent was added to each well of the 96-well cell culture plate. The plate was let stand for 5-10 min in the dark at room temperature. The chemiluminescence signals were read by a PHERAstar system, and the data were processed by GraphPad software.

DLD1^BRCA2−/− cells = details: 144 h; inhibition of proliferation, human BRCA2 gene knock-out colon cancer cells, 6 days incubation
Text: as §1
(§4) DLD1^BRCA2−/− cells were cultured in an RPMI-1640 medium containing 10% FBS, and passaged 2-3 times a week in a passage ratio of 1:6 or 1:8. During passage, the cells were digested by pancreatin, transferred to a centrifuge tube, and centrifuged for 3 min at 1200 rpm. The supernatant was discarded, and a fresh medium was added to resuspend the cells. To a 96-well cell culture plate, 180 μL of the cell suspension was added at a density of 8.34×10^3 cells/mL. To peripheral wells of the 96-well plate, only 180 μL of complete medium was added.
as §2, §3

MDA-MB-436 cells = details: MDA-MB-436, 144 h; inhibition of proliferation, human breast cancer cells, 6 days incubation
Text: as §1
as §4, with “MDA-MB-436” for “DLD1^BRCA2−/−”, “a Leibovitz's L-15” for “an RPMI-1640”, “FBS, 10 μg/mL insulin, and 16 µg/mL glutathione,” for “FBS,”, “1:3” for “1:6”, “1:5.” for “1:8.”
as §2, §3

SMILES | IC50 (DLD1 cells) [nM] | IC50 (DLD1^BRCA2−/− cells) [nM] | IC50 (MDA-MB-436 cells) [nM]
CCc1cc2ncc(CN3CCN4c5ccc(C(=O)NC)nc5COCC4C3)cc2[nH]c1=O (racemic) [Example 3, (±)-3-((7-Ethyl-6-oxo-5,6-dihydro-1,5-naphthyridin-3-yl)methyl)-N-methyl-1,2,3,4,4a,5-hexahydro-7H-pyrazino[2,1-c]pyrido[3,2-e][1,4]oxazepine-9-carboxamide] | > 250 | 5.8 | 1.1
CCc1cc2ncc(CN3CCN4c5ccc(C(=O)NC)nc5OCC4C3)cc2[nH]c1=O (racemic) [Example 1, (±)-3-((7-Ethyl-6-oxo-5,6-dihydro-1,5-naphthyridin-3-yl)methyl)-N-methyl-1,2,3,4,4a,5-hexahydropyrazino[1,2-d]pyrido[2,3-b][1,4]oxazine-8-carboxamide] | > 1000 | 7.9 | 5.8
CCc1cc2ncc(CN3CCN4c5ccc(C(=O)NC)nc5NCC4C3)cc2[nH]c1=O (racemic) [Example 6, (±)-3-((7-Ethyl-6-oxo-5,6-dihydro-1,5-naphthyridin-3-yl)methyl)-N-methyl-2,3,4,4a,5,6-hexahydro-1H-pyrazino[1,2-a]pyrido[2,3-e]pyrazine-8-carboxamide] | > 1000 |  | 41.8
CCc1cc2ncc(CN3CCN4c5ccc(C(=O)NC)nc5OC[C@H]4C3)cc2[nH]c1=O [Example 2, (R)-3-((7-Ethyl-6-oxo-5,6-dihydro-1,5-naphthyridin-3-yl)methyl)-N-methyl-1,2,3,4,4a,5-hexahydropyrazino[1,2-d]pyrido[2,3-b][1,4]oxazine-8-carboxamide] | > 250 | 2.5 | 1

Further lines, results first:

IC50 (DLD1 cells) [nM] | IC50 (DLD1^BRCA2−/− cells) [nM] | IC50 (MDA-MB-436 cells) [nM] | SMILES
> 1000 |  | 18.7 | CCc1cc2ncc(CN3CCN4c5ccc(C(=O)NC)nc5N(C)CC4C3)cc2[nH]c1=O (racemic) [Example 7, (±)-3-((7-Ethyl-6-oxo-5,6-dihydro-1,5-naphthyridin-3-yl)methyl)-N,6-dimethyl-2,3,4,4a,5,6-hexahydro-1H-pyrazino[1,2-a]pyrido[2,3-e]pyrazine-8-carboxamide]
> 1000 | 7.84 | 1.2 | CCc1cc2ncc(CN3CCN4c5ccc(C(=O)NC)nc5COC[C@H]4C3)cc2[nH]c1=O [Example 8, (R)-3-((7-Ethyl-6-oxo-5,6-dihydro-1,5-naphthyridin-3-yl)methyl)-N-methyl-1,2,3,4,4a,5-hexahydro-7H-pyrazino[2,1-c]pyrido[3,2-e][1,4]oxazepine-9-carboxamide]
